Measurements from US8426369B2, “Prevention and treatment of colon cancer” (Rutgers, The State University of New Jersey, priority 2006, dated 2013).
Like-named read-outs stand apart in the source and are kept apart here.

Key:
[1] = tested on: carcinogen-induced preneoplastic lesions; conditions: MMOC model; cited from earlier work
[2] = tested on: azoxymethane-induced aberrant crypt foci (ACF); experiment: Azoxymethane-induced aberrant crypt foci (ACF) in rat colon, dietary pterostilbene; type: in vivo, male F344 rats; conditions: for inhibition at 40 ppm: Rattus norvegicus, feed or water, 40 ppm in diet, compared to control diet
Method: Weanling male F344 rats were obtained from Charles River Breeding Laboratories (Kingston, N.Y.). All experimental diets were purchased from Research Diets (New Brunswick, N.J.) and stored at 4° C. All animals were randomly distributed by weight into control and experimental groups and housed in plastic cages with filter tops (three per cage) under controlled conditions of a 12-hr light and dark cycle, 50% humidity and 21° C. temperature. Animals had access to food and water at all times. Food cups were replenished with fresh diet two times weekly.
Beginning at 5 weeks of age, all rats were fed the modified American Institute of Nutrition-76A (AIN-76A) diet. At 7 weeks of age, the animals were given s.c. injections of azoxymethane (AOM) (CAS no. 25843-45-2, Ash Stevens, Detroit, Mich.) once weekly for 2 weeks at a dose rate of 15 mg/kg body weight. One day after the second AOM injection, groups of animals (n=9 per group) were maintained on AIN-76A diet alone and AIN-76A diet containing 40 ppm pterostilbene. […] See, e.g., U.S. Application Publication No. US 2006-0057231 A1.
On the average, the animal consumed about 0.6 mg pterostilbene per day. All rats were weighed once weekly until termination of the study at 8 weeks after the second AOM treatment were sacrificed by CO2 asphyxiation. After laparotomy, the entire stomach, small intestine, and large intestine were resected. The organs were opened longitudinally, and the contents were flushed with normal saline.
For the ACF analysis, the colons were fixed flat between two pieces of filter paper in 10% buffered formalin for a minimum of 24 hr. The colons were then cut into 2-cm segments, starting at the anus. They were stained with 0.2% methylene blue in Krebs-Ringer solution for 5-10 min, and were then placed mucosal side up on a microscope slide and observed through a light microscope. ACF were counted and recorded according to standard procedures that are being used routinely in the laboratory. […] The parameters used to assess the aberrant crypts were their occurrence and multiplicity. Crypt multiplicity was determined as the number of crypts in each focus. Multicrypts were categorized as containing up to four or more aberrant crypts/focus.
Total number of ACF/colon and multiple aberrant crypts/focus were counted and the data were analyzed by Student's t-test. The PCNA labeling index (PI) was calculated as the [(number of positive cells)/(total number of cells)]×100 for each field which is averaged to get the PI for each section. The significance of treatment between the groups was analyzed by Student's t-Test.

p27 = experiment: Western blot of p27 in HT-29 cells; type: cell-based, human; conditions: HT-29, data not shown
Method: The cells were incubated with different concentrations of pterostilbene for 1, 2 and 3 days, and cell proliferation was estimated by measuring [^3H]thymidine incorporated into DNA. […] In order to evaluate whether pterostilbene potentiates cell cycle arrest or apoptosis in HT-29 cells, the effect of pterostilbene on the proteins regulating the cell cycle and/or apoptosis pathways was examined. Cells treated with pterostilbene for 9 h or 18 h were harvested and protein samples were analyzed by Western blotting (FIG. 8B).
The cell culture conditions and the reagents used in this example were described in Example 32. Whole cell extracts were collected after the various treatments and analyzed by western blotting. The protein samples were separated on 4-15% SDS-PAGE gels (Biorad, Hercules, Calif.) followed by transfer to a polyvinylidene fluoride membrane. The membranes were blocked with 5% milk in Tris buffer for 1 h and then incubated with the appropriate primary antibody solutions overnight at 4° C. The membranes were washed with Tris buffer, and incubated with horseradish peroxidase conjugated secondary antibody solutions for 1 h at room temperature.
The protein bands were visualized using a chemiluminescence based kit from Amersham Biosciences (Buckinghamshire, UK). […]

p65 subunit of NF-κB = experiment: Nuclear protein level of p65 subunit of NF-κB in HT-29 cells; type: cell-based, human; conditions: HT-29, data not shown
[3] = 40 ppm in AIN-76A diet, 8 weeks after second AOM treatment, Mean ± S.D. (n = 9)

COc1cc(/C=C/c2ccc(O)cc2)cc(OC)c1 [pterostilbene, (E)-4-(3,5-dimethoxystyryl)phenol]
preventing carcinogen-induced preneoplastic lesions [1]: as effective as resveratrol | >4 ACF/colon [2, 3]: 25.1 ± 5.6 | ACF/colon [2, 3]: 117 ± 12 | inhibition at 40 ppm ([2]; read-out: inhibition of multiple aberrant crypts/focus): 29% | inhibition at 40 ppm ([2]; read-out: inhibition of total ACF/colon): 57% | induction of p27 (p27): no induction | nuclear protein levels of the p65 subunit of NF-κB (p65 subunit of NF-κB): remained high and unaltered
